Source: US8759051B2, “Control of contaminant microorganisms in fermentation processes with peroxygen-releasing compounds” (E I du Pont de Nemours and Company, priority 2010, dated 2014)
Where “and” joins values, the source holds several entries; their conditions need not be identical. Identical values can stand only once.

Experiments:
[1] = tested on: lactic acid bacteria (LAB); assay: Susceptibility of lactic acid bacteria cocktail to sodium percarbonate in diluted molasses (Example 1); type: cell-based; conditions: for LAB level after treatment: approx. 2 hours, 32° C., molasses
Description: In this example, the susceptibility of yeast and lactic acid bacteria to sodium percarbonate was determined in molasses. Molasses was prepared by diluting molasses (B&G Foods, Inc., Roseland, N.J.) 1 part to 3.1 parts water to mimic conditions used for ethanol production based on a molasses feedstock (common in Latin America and Asia). The diluted molasses was autoclaved at 121° C. for 15 minutes to sterilize prior to use in the experiment. Cultures of lactic acid bacteria (LAB) (Lactobacillus plantarum, Lactobacillus brevis, Lactobacillus fermentum, and Lactobacillus paracasei) were prepared by inoculating MRS broth (available from Difco Laboratories Inc., Sparks, Md.) and incubating overnight at 32° C. with agitation. The bacteria were selected because they had previously been isolated from contaminated ethanol fermentation processes. Cultures of each organism were combined to create a bacterial cocktail and diluted in molasses to give 1.0×10^7, 1.0×10^6, and 1.0×10^5 bacteria/ml, or commonly expressed as colony forming units per milliliter or CFU/ml). Sodium percarbonate (Alfa Aesar, Ward Hill, Mass.) was prepared as a 2% solution immediately prior to use. Percarbonate was added to tubes containing 25 ml of inoculated molasses to give concentrations of 0, 100, 250, 500 and 1000 ppm. Tubes were incubated at 32° C. with agitation. After approximately 2 hours, bacterial levels present in each tube were enumerated by plating decimal dilutions of molasses onto the surface of MRS agar plates (Difco Laboratories Inc., Sparks, Md.). Plates were incubated overnight at 32° C.

[2] = tested on: lactic acid bacteria (LAB); assay: Inactivation of LAB in molasses at pH 4.2 and 5.4 (Examples 2 and 3); type: cell-based; conditions: for reduction in the amount of LAB: 2 hours; for reduction in the levels of LAB: 2-hour
Description: Molasses (B&G Foods, Inc., Roseland, N.J.) was diluted 1 to 3.1 with water and sterilized as in Example 1. The prepared molasses was then divided into two lots and pH-adjusted using sulfuric acid to approximately pH 4.2 and 5.4, respectively. Cultures of LAB were prepared as in Example 1 and inoculated into the molasses to give approximately 1×10^6 CFU/ml. Sodium percarbonate (Alfa Aesar, Ward Hill, Mass.) was added to give 250, 500, and 750 ppm. […] Levels of LAB were enumerated by dilution and plating onto the surface of MRS agar followed by incubation at 32° C. LAB were enumerated at approximately 2 and 24 hours after the addition of sodium percarbonate.
Molasses was prepared as above and adjusted to pH 4.2 and 5.4 using sulfuric acid. Cultures of lactic acid bacteria were prepared as indicated in Example 1 and inoculated into the molasses to give approximately 10E6 CFU/ml. Levels of bacteria were confirmed by plating serial dilutions of the inoculated molasses onto the surface of MRS agar plates as in Example 1. Calcium peroxide was added at the levels indicated. Bacterial levels were enumerated at 2 and 24 hours following addition as described above.

Ethanol Red = assay: Susceptibility of fermenting yeast to sodium percarbonate in diluted molasses (Example 1, second part); type: cell-based; conditions: for yeast level after treatment: two hours, molasses
Description: (§1) In a second part of this Example 1, the yeasts strains Ethanol Red, FermPro S, and SuperStart (commonly used as fermenting yeasts in the ethanol industry) were cultured overnight in Yeast Peptone Dextrose broth (YPD, Difco Laboratories Inc., Sparks, Md.). Individual strains were then suspended in dilute molasses as above to give approximately 1×10^6 CFU/ml and treated with various concentration of percarbonate for two hours as described above.

SuperStart = assay: as above; type: cell-based; conditions: for yeast level after treatment: two hours, molasses
Description: as §1

[3] = Stability of peroxygen-releasing compounds during storage at 40° C., iodometric titration of hydrogen peroxide (Example 4); type: physicochemical
Description: A dry oven was used to store samples of the peroxygen-releasing compounds at 40° C. The oven was allowed to equilibrate overnight. Two-gram duplicate samples of each of the following peroxygen-releasing compounds were dispensed into aluminum weighing dishes: sodium percarbonate (Alfa Aesar, Ward Hill, Mass.), sodium percarbonate FB 400 (Solvay Chemicals, Inc., Houston, Tex.), sodium percarbonate FB […] (Solvay Chemicals, Inc.), calcium peroxide (Sigma-Aldrich Co., St. […] After six days, samples were analyzed for levels of hydrogen peroxide using standard iodometric titration.

[4] = tested on: lactic acid bacteria (LAB); assay: Inactivation of LAB in dilute molasses at pH 5.0 in the presence of yeast Ethanol Red (Example 5); type: cell-based; conditions: for Log CFU/mL of LAB at hour indicated: 32° C.
Description: Cultures of lactic acid bacteria (LAB) were prepared as in Example 1 above. Molasses was diluted 1:3.1 with water as in previous examples. The fermenting yeast Ethanol Red was cultured as in example 1. Populations of lactic acid bacteria and yeasts were determined by dilution plating on MRS agar and YPD agar, respectively. Overnight cultures of LAB were mixed to prepare a bacterial cocktail and inoculated into molasses (diluted 1:3.1 with water) adjusted to pH 5.0 to give approximately 6.11 Log CFU/ml. Cultures of yeasts were added to each tube at a concentration of approximately 6.80 Log CFU/ml. […] The amount of UHP added was 1450 ppm. The amount of percarbonate added was 1812 ppm. Tubes were then incubated at 32° C. with agitation. […] Amphotericin inhibits the growth of yeast, facilitating enumeration of bacteria only.

[5] = 1.0×10^6 CFU/ml, 500 ppm percarbonate

O=C([O-])[O-].O=C([O-])[O-].OO.OO.OO.[Na+].[Na+].[Na+].[Na+] [Sodium percarbonate, sodium percarbonate]
log reductions of LAB ([1]; 1000 ppm percarbonate): > 6 log | LAB level (below detectable limit of the assay) ([1]; 1000 ppm percarbonate, all of the tested levels of LAB): < 10 CFU/ml | reduction in the level of bacteria ([1]; initial LAB 1.0×10^6 or 1.0×10^7 CFU/ml, 500 ppm percarbonate): 2 log | LAB level after treatment ([1]; inoculum 1.0 × 10^5 CFU/ml, 100 ppm percarbonate): 8.90 × 10^4 CFU/ml | LAB level after treatment ([1]; inoculum 1.0 × 10^5 CFU/ml, 250 ppm percarbonate): 1.80 × 10^3 CFU/ml | LAB level after treatment ([1]; inoculum 1.0 × 10^5 CFU/ml, 500 ppm percarbonate): 1.70 × 10^2 CFU/ml | LAB level after treatment ([1]; inoculum 1.0 × 10^5 CFU/ml, 1000 ppm percarbonate): <10 CFU/ml | LAB level after treatment ([1]; inoculum 1.0 × 10^6 CFU/ml, 100 ppm percarbonate): 8.50 × 10^5 CFU/ml | LAB level after treatment ([1]; inoculum 1.0 × 10^6 CFU/ml, 250 ppm percarbonate): 1.55 × 10^5 CFU/ml | LAB level after treatment ([1]; inoculum 1.0 × 10^6 CFU/ml, 500 ppm percarbonate): 1.17 × 10^4 CFU/ml | LAB level after treatment ([1]; inoculum 1.0 × 10^6 CFU/ml, 1000 ppm percarbonate): <10 CFU/ml | LAB level after treatment ([1]; inoculum 1.0 × 10^7 CFU/ml, 100 ppm percarbonate): 6.90 × 10^6 CFU/ml | LAB level after treatment ([1]; inoculum 1.0 × 10^7 CFU/ml, 250 ppm percarbonate): 1.68 × 10^6 CFU/ml | LAB level after treatment ([1]; inoculum 1.0 × 10^7 CFU/ml, 500 ppm percarbonate): 1.20 × 10^5 CFU/ml | LAB level after treatment ([1]; inoculum 1.0 × 10^7 CFU/ml, 1000 ppm percarbonate): <10 CFU/ml | reduction in the level of bacteria ([1]; starting LAB 1.0×10^5 CFU/ml, 500 ppm percarbonate, two hours): ~3 log | CFU/ml LAB at hour indicated ([2]; molasses at pH 4.2, 250 ppm (69 ppm as H2O2), hour 2): 7.85 × 10^5 CFU/ml | CFU/ml LAB at hour indicated ([2]; molasses at pH 4.2, 250 ppm (69 ppm as H2O2), hour 24): 8.75 × 10^4 CFU/ml | CFU/ml LAB at hour indicated ([2]; molasses at pH 4.2, 500 ppm (138 ppm as H2O2), hour 2): 8.40 × 10^5 CFU/ml | CFU/ml LAB at hour indicated ([2]; molasses at pH 4.2, 500 ppm (138 ppm as H2O2), hour 24): 7.90 × 10^6 CFU/ml | CFU/ml LAB at hour indicated ([2]; molasses at pH 4.2, 750 ppm (207 ppm as H2O2), hour 2): 3.10 × 10^5 CFU/ml | CFU/ml LAB at hour indicated ([2]; molasses at pH 4.2, 750 ppm (207 ppm as H2O2), hour 24): 1.50 × 10^3 CFU/ml | CFU/ml LAB at hour indicated ([2]; molasses at pH 5.4, 250 ppm (69 ppm as H2O2), hour 2): 3.95 × 10^5 CFU/ml | CFU/ml LAB at hour indicated ([2]; molasses at pH 5.4, 250 ppm (69 ppm as H2O2), hour 24): 7.50 × 10^1 CFU/ml | CFU/ml LAB at hour indicated ([2]; molasses at pH 5.4, 500 ppm (138 ppm as H2O2), hour 2): 3.85 × 10^4 CFU/ml | CFU/ml LAB at hour indicated ([2]; molasses at pH 5.4, 500 ppm (138 ppm as H2O2), hour 24): 1.50 × 10^1 CFU/ml | CFU/ml LAB at hour indicated ([2]; molasses at pH 5.4, 750 ppm (207 ppm as H2O2), hour 2): 2.80 × 10^4 CFU/ml | CFU/ml LAB at hour indicated ([2]; molasses at pH 5.4, 750 ppm (207 ppm as H2O2), hour 24): <10 CFU/ml | CFU/ml LAB at hour indicated ([2]; molasses at pH 5.4, 750 ppm (207 ppm as H2O2), hour 24, listed as sodium percarbonate): below the detection limit | reduction in the amount of LAB ([2]; molasses pH 4.2, 250 ppm sodium percarbonate): approximately 1 log | reduction in the amount of LAB ([2]; molasses pH 4.2, 500 ppm sodium percarbonate): approximately 1 log | reduction in the amount of LAB ([2]; molasses pH 4.2, 750 ppm sodium percarbonate): approximately 1 log | reduction in the number of LAB ([2]; molasses pH 4.2, 750 ppm sodium percarbonate, 24 hour): more than 3 log units | reduction in the level of LAB ([2]; molasses pH 5.4, 250 ppm sodium percarbonate, 24-hour): ~6 log | reduction in the levels of LAB ([2]; molasses pH 5.4, 500 ppm sodium percarbonate): approximately 2 log | reduction in the levels of LAB ([2]; molasses pH 5.4, 750 ppm sodium percarbonate): approximately 2 log | reduction of yeast (Ethanol Red; [5]): < 1 log | yeast level after treatment (Ethanol Red; 100 ppm percarbonate): 7.90 × 10^6 CFU/ml | yeast level after treatment (Ethanol Red; 250 ppm percarbonate): 5.00 × 10^6 CFU/ml | yeast level after treatment (Ethanol Red; 500 ppm percarbonate): 1.99 × 10^6 CFU/ml | reduction of yeast (Ethanol Red; 1000 ppm percarbonate): approximately 1 log | yeast level after treatment (Ethanol Red; 1000 ppm percarbonate): 4.90 × 10^5 CFU/ml | reduction in the concentration of yeast (SuperStart; [5]): approximately 1 log | yeast level after treatment (SuperStart; 100 ppm percarbonate): 1.22 × 10^6 CFU/ml | yeast level after treatment (SuperStart; 250 ppm percarbonate): 3.80 × 10^5 CFU/ml | yeast level after treatment (SuperStart; 500 ppm percarbonate): 1.07 × 10^5 CFU/ml | yeast level after treatment (SuperStart; 1000 ppm percarbonate): 6.00 × 10^3 CFU/ml | % Remaining H2O2 Day 0 [3]: 100% | % Remaining H2O2 Day 6 [3]: 99% | % Remaining H2O2 Day 14 [3]: 99% | % H2O2 Day 0 ([3]; before storage, duplicate samples, listed as Sodium percarbonate (Alfa Aesar)): 27.48% and 27.38% | % H2O2 Day 6 ([3]; storage at 40° C. in dry oven, day 6, duplicate samples, listed as Sodium percarbonate (Alfa Aesar)): 27.12% and 27.05% | % H2O2 Day 14 ([3]; storage at 40° C. in dry oven, day 14, duplicate samples, listed as Sodium percarbonate (Alfa Aesar)): 27.11% and 26.99% | reduction of the population of LAB ([4]; 500 ppm as H2O2, 2 hours of incubation at 32° C., in presence of yeast): ~5 log units | Log CFU/mL of LAB at hour indicated ([4]; 500 ppm as H2O2, hour 2, molasses pH 5.0, yeast approx. 6.80 Log CFU/ml): 1.95 Log CFU/mL | Log CFU/mL of LAB at hour indicated ([4]; 500 ppm as H2O2, hour 6, molasses pH 5.0, yeast approx. 6.80 Log CFU/ml, listed as percarbonate): <1 Log CFU/mL | Log CFU/mL of LAB at hour indicated ([4]; 500 ppm as H2O2, hour 6, molasses pH 5.0, yeast approx. 6.80 Log CFU/ml, listed as sodium percarbonate): below the detectable limit
